# According to ChEMBL document CHEMBL1146829, “Acetylene-based analogues of thiolactomycin, active against Mycobacterium tuberculosis mtFabH fatty acid condensing enzyme” (Bioorg Med Chem Lett, 2004):
# Test: Inhibitory activity against recombinant Mycobacterium tuberculosis beta-ketoacyl-Acyl Carrier Protein synthase mtFabH condensing enzyme
row,Compound,IC50 [µM]
1,CC1=C(O)C(C)(CC#Cc2ccccc2C#N)SC1=O (centres undefined),48
2,C#CCC1(C)SC(=O)C(C)=C1O (centres undefined),100
3,COC(=O)c1ccc(C#CCC2(C)SC(O)=C(C)C2=O)cc1 (centres undefined),74
4,CC(=O)c1ccc(C#CCC2(C)SC(O)=C(C)C2=O)cc1 (centres undefined),4
5,CC1=C(O)C(C)(CC#Cc2ccc(C#N)cc2)SC1=O (centres undefined),7
6,CC(=O)c1ccc(C#CCC2(C)SC(O)=C(C)C2=O)cc1O (centres undefined),7
7,C=C/C(C)=C/[C@@]1(C)SC(=O)C(C)=C1O [THIOLACTOMYCIN],74.9
8,CC1=C(O)C(C)(Cc2ccc(-c3ccc(COCc4ccccc4)cc3)cc2)SC1=O (centres undefined),17
9,CC1=C(O)C(C)(CC#Cc2ccc([N+](=O)[O-])cc2)SC1=O (centres undefined),34
